Test results reported in patent publication US20050222260A1, “(2S)-2-amino-a-{[2-(ethanimidoylamino) ethyl]thio}butanoic acid, a nitric oxide synthase inhibitor, in stabilized pharmaceutical dosage forms” (priority 2003, published 2005).

What was measured:
[1] = compared with the hydrochloride salts exemplified in WO98/30537; cited from earlier work
[2] = Compatibility with standard pharmaceutical excipients of solid oral dosage forms; type: physicochemical; conditions: excipients conventionally used for solid oral dosage forms such as tablets; e.g. as compound with phosphoric acid

Row | Structure (SMILES) | hygroscopicity [1] | compatibility with standard pharmaceutical excipients [2]
1 | CC(=N)NCCSCC[C@H](N)C(=O)O.O=P(O)(O)O [phosphate salt of (2S)-2-amino4-{[2-(ethanimidoylamino)ethyl]thio}butanoic acid] | considerably less hygroscopic | –
2 | CC(=N)NCCSCC[C@H](N)C(=O)O [(2S)-2-amino4-{[2-(ethanimidoylamino)ethyl]thio}butanoic acid] | – | exhibits incompatability with standard pharmaceutical excipients
